Data taken from patent publication US20240043860A1, “NOVEL HYDROXYPHENYLPYRUVATE DIOXYGENASE POLYPEPTIDES AND METHODS OF USE THEREOF” (Syngenta Crop Protection AG, priority 2020, published 2024).
Where “and” joins values, the source holds several entries; their conditions need not be identical. Equal entries are not always repeated.

Tests used:
Test in all cases: spray test, herbicidal damage scoring
Format in all cases: in vivo
[1] = system: transgenic tobacco plants expressing mutant HPPD SEQ ID NO: 124; conditions: Table 4.2, 7 days after treatment, 100=complete death, 0=no damage, one value per event
Procedure: (§1) DNA sequences that encode these polypeptides (optimized for tobacco or, optionally, codon optimized according to a target crop such as soybean) were prepared synthetically. Each sequence was designed to include a 5′ fusion with TMV omega 5′ leader sequence such that they are flanked at the 5′ end with XhoI and at the 3′ end with KpnI to facilitate direct cloning into a suitable binary vector for Agrobacterium-based plant transformation.
(§2) For example, a master plate of Agrobacterium tumefaciens containing the HPPD expressing the binary vector is used to inoculate 10 ml LB (L broth) containing 100 mg/l Rifampicin plus 50 mg/l Kanamycin using a single bacterial colony. This is incubated overnight at 28° C. shaking at 200 rpm. This entire overnight culture is used to inoculate a 50 ml volume of LB containing the same antibiotics. Again this is cultured overnight at 28° C. shaking at 200 rpm. The Agrobacterium cells are pelleted by centrifuging at 3000 rpm for 15 minutes and then resuspended in MS (Murashige and Skoog) medium containing 30 g/l sucrose, pH 5.9 to an OD […]=0.6. This suspension is dispensed in 25 ml aliquots into petri dishes.
(§3) Once rooted, plantlets are transferred from agar and potted into 50% peat, 50% John Innes Soil No. 3 or, for example, MetroMix® 380 soil (Sun Gro Horticulture, Bellevue, WA) with slow-release fertilizer in 3 inch round or 4 inch square pots and left regularly watered to establish for 8-12d in the glass house. Glass house conditions are about 24-27° C. day; 18-21° C. night and approximately a 14h (or longer in UK summer) photoperiod.
(§4) About 20-30 TO events are produced for a number of HPPD variant genes.
(§5) Single copy events amongst the Ti plant lines are identified by their 3:1 segregation ratio (with respect to kanamycin and/or herbicide) and by quantitative RT-PCR. Seed from the thus selected Ti tobacco (var. Samsun) lines are sown in 3 inch diameter pots containing 50% peat and 50% John Innes Soil No. 3. […] HPPD expression levels were monitored by Western analysis.
(§6) Tables 4.1-4.9 show the herbicidal damage scoring on transgenic tobacco plants 7 days after treatment. A score of 100=complete death and 0=no damage observed.

[2] = system: transgenic tobacco plants expressing mutant HPPD SEQ ID NO: 125; conditions: Table 4.3, 7 days after treatment, 100=complete death, 0=no damage, one value per event
Procedure: as §1, §2, §3, §4, §5, §6

[3] = system: transgenic tobacco plants expressing mutant HPPD SEQ ID NO: 21; conditions: 2000 g/ha; SEQ ID 21 plants compared to plants expressing SEQ IDs 122, 124 or 125
Procedure: as §1, with “Avena sativa HPPD or orthologues and variants thereof, for example SEQ IDs 1-63 and 122-127, were expressed in transgenic tobacco. DNA” for “DNA”, “transformation. […]” for “transformation.”
(§7) Plants are assessed for damage and scored at, for example, 7 and 14 days after treatment (DAT). […]
(§8) Plants of events showing the least damage are grown to flowering, then bagged and allowed to self. […] Single copy events amongst the Ti plant lines are identified by their 3:1 segregation ratio (with respect to kanamycin and/or herbicide) and by quantitative RT-PCR. […] HPPD expression levels were monitored by Western analysis. […]

[4] = system: transgenic tobacco plants expressing mutant HPPD SEQ ID NO: 8; conditions: 2000 g/ha; SEQ ID 8 plants compared to plants expressing SEQ IDs 122, 124 or 125
Procedure: as §1, with “Avena sativa HPPD or orthologues and variants thereof, for example SEQ IDs 1-63 and 122-127, were expressed in transgenic tobacco. DNA” for “DNA”, “transformation. […]” for “transformation.”
as §7, §8

Structure (SMILES) | herbicidal damage scoring, Herbicide C (200 g/ha) [1] | herbicidal damage scoring, Herbicide C (200 g/ha) [2] | damage [3] | damage [4]
COc1ccc(-n2nc(C)cc(C(=O)C3C(=O)CCCC3=O)c2=O)cc1OC [Herbicide C, dioxopyritrione] | 60 and 65 and 50 | 60 and 80 and 75 and 85 | – | –
Cn1nnnc1NC(=O)c1ccc(C(F)(F)F)nc1-n1cncn1 [Herbicide D, N-(1-methyltetrazol-5-yl)-2-(1,2,4-triazol-1-yl)-6-(trifluoromethyl)pyridine-3-carboxamide] | – | – | significantly reduced damage | significantly reduced damage
